Measurements reported in publication PMC7926675, “Rainbow Trout (Oncorhynchus mykiss) Na^+/H^+ Exchangers tNhe3a and tNhe3b Display Unique Inhibitory Profiles Dissimilar from Mammalian NHE Isoforms” (International Journal of Molecular Sciences, 2021).

Assays:
[1] = target: T1, tNhe3a (trout Na+/H+ exchanger Nhe3a) (Oncorhynchus mykiss, UniProt A4GWV2); test: two-pulse ammonium chloride acid-load pHi recovery assay (BCECF) in stably transfected AP-1 cells, background subtracted; type: cell-based
T1 construct: gene NHE3; GFP-tagged tNhe3a (cDNA identical to NM_001130995) stably expressed in NHE-deficient AP-1 cells
T1 sequence (A4GWV2 1-752): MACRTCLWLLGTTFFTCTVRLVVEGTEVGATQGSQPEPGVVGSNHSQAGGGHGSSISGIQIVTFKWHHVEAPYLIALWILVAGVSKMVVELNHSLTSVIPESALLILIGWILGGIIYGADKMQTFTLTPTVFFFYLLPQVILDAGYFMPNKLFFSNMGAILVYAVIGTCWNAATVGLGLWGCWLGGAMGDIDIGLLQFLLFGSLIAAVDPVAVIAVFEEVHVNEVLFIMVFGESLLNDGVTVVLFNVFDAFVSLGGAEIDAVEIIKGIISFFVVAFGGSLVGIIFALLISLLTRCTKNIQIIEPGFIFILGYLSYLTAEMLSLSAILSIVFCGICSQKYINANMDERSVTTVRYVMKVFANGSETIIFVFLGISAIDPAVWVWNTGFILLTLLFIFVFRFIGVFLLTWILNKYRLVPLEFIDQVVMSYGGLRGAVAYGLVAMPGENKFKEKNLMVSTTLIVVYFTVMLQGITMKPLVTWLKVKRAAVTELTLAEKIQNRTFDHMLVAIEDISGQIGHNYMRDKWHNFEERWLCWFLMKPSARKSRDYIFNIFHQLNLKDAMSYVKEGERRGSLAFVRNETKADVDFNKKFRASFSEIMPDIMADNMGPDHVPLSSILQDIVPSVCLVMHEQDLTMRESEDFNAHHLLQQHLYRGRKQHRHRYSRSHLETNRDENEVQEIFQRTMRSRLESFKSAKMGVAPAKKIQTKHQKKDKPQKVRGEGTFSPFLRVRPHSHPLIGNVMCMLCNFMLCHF

[2] = target: T2, tNhe3b (trout Na+/H+ exchanger Nhe3b) (Oncorhynchus mykiss, UniProt B6VDZ5); test: two-pulse ammonium chloride acid-load pHi recovery assay (BCECF) in stably transfected AP-1 cells; significant only at […]; type: cell-based
T2 construct: GFP-tagged tNhe3b (cDNA identical to FJ376630.1) stably expressed in NHE-deficient AP-1 cells
T2 sequence (B6VDZ5 1-842): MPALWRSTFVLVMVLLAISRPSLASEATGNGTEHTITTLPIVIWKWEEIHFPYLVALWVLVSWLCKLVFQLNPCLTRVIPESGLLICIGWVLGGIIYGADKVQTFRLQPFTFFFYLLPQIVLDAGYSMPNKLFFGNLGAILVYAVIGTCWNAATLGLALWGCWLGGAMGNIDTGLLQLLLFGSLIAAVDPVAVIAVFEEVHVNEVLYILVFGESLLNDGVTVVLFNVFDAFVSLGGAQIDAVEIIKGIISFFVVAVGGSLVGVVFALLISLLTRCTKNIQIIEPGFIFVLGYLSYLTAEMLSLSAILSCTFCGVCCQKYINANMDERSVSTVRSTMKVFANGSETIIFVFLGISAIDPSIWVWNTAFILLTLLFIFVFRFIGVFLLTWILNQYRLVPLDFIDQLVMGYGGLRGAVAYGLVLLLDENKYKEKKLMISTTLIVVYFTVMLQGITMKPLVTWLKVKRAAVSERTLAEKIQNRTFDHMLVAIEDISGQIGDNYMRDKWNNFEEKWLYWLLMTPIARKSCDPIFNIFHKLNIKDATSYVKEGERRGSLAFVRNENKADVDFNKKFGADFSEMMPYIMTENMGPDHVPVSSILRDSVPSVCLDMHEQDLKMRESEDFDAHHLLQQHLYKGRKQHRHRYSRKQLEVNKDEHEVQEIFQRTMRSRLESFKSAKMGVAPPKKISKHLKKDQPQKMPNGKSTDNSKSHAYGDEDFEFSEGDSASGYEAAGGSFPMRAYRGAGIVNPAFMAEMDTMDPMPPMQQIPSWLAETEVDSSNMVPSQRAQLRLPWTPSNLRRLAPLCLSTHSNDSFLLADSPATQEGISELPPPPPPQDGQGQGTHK

Row | SMILES | IC50 [1] [µM] | IC50 [2] [µM]
1 | N=C(N)NC(=O)c1nc(Cl)c(N)nc1N [amiloride, N-amidino-3,5-diamino-6-chloropyrazinecarboxamide] | ~9.3 | ~335
2 | CCN(c1nc(N)c(C(=O)NC(=N)N)nc1Cl)C(C)C [EIPA] | ~44 | 
